Laboratory results from US20210379184A1, “Deep Eutectic Solvent Platform for Oral Pharmaceutical Formulations” (SeraNovo B.V., priority 2018, published 2021).
Values after ≈ are worked out from the molar mass of the structure shown.

Experiment: physchem
Excerpt: The DES systems contained propylene glycol, a specific polymer solubilizer, and one or more (NA)DES constituents.

SMILES: NC(=O)N1c2ccccc2C=Cc2ccccc21 [Carbamazepine]
- solubility (20 °C, pH 7, water): 17 µg/mL (≈ 72 µM)
- solubility (organic solvent or mixture, Concentration solubilized API (mg/mL)): > 100000 µg/mL

SMILES: COc1ccccc1OCCNCC(O)COc1cccc2[nH]c3ccccc3c12 (centres unmarked) [Carvedilol]
- solubility (20 °C, pH 7, water): 0.6 µg/mL (≈ 1.48 µM)

SMILES: O=C(O)c1ccccc1Nc1cccc(C(F)(F)F)c1 [Flufenamic Acid]
- solubility (20 °C, pH 7, water): 9.1 µg/mL (≈ 32.4 µM)

SMILES: CCC(C)n1ncn(-c2ccc(N3CCN(c4ccc(OCC5COC(Cn6cncn6)(c6ccc(Cl)cc6Cl)O5)cc4)CC3)cc2)c1=O (centres unmarked) [Itraconazole]
- Concentration solubilized API (mg/mL): up to 200 mg/mL
- factor by which the concentration solubilized in DES exceeds the solubility of the drug in water: ≤ 10.000.000
- solubility (20 °C, pH 7, water): 0.004 µg/mL (≈ 0.00567 µM)
- solubility (organic solvent or mixture, solubility of itraconazole): < 25000 µg/mL

SMILES: CC(C)Cc1ccc(C(C)C(=O)O)cc1 (centres unmarked) [Ibuprofen]
- factor by which the concentration solubilized in DES exceeds the solubility of the drug in water: at least 100
- solubility (20 °C, pH 7, water): 21 µg/mL (≈ 102 µM)

SMILES: CC(=O)N1CCN(c2ccc(OCC3COC(Cn4ccnc4)(c4ccc(Cl)cc4Cl)O3)cc2)CC1 (centres unmarked) [Ketoconazole]
- solubility (20 °C, pH 7, water): 0.09 µg/mL (≈ 0.169 µM)
